Experimental data reported in ChEMBL document CHEMBL2034855, “(18)F-labeled phenyldiazenyl benzothiazole for in vivo imaging of neurofibrillary tangles in Alzheimer's disease brains” (ACS Med Chem Lett, 2012).
The source made the active and inactive calls. The rule behind the calls is not given here.

How the values were obtained:
[1] = species: Homo sapiens; assay: Selectivity ratio Ki for amyloid beta (1 to 42) aggregates to Ki for recombinant human tau
[2] = target: T1, Microtubule-associated protein tau (Homo sapiens, UniProt P10636); assay: Displacement of Thioflavin S from recombinant human tau expressed in Escherichia coli after 30 mins by fluorescence assay
[3] = system: Brain; assay: Biodistribution in mouse brain at 64.5 kBq, iv measured 30 mins post injection by gamma counting; format: ADME, organism-based; details: in vivo, 0.5 h
[4] = system: Pancreas; assay: Biodistribution in mouse pancreas at 64.5 kBq, iv measured 10 mins post injection by gamma counting; format: ADME, organism-based; details: in vivo
[5] = system: Bone; assay: Biodistribution in mouse bone at 64.5 kBq, iv measured 2 mins post injection by gamma counting; format: ADME, organism-based, Bone element; details: in vivo
[6] = system: Lung; assay: Biodistribution in mouse lung at 64.5 kBq, iv measured 10 mins post injection by gamma counting; format: ADME, organism-based; details: in vivo
[7] = target: T1, Microtubule-associated protein tau; assay: Binding affinity to recombinant human tau expressed in Escherichia coli after 30 mins by fluorescence assay
[8] = Octanol-phosphate buffer partition coefficient, log P of the compound at 0.37 MBq after 10 mins by gamma counting; format: physicochemical
[9] = system: Liver; assay: Biodistribution in mouse liver at 64.5 kBq, iv measured 30 mins post injection by gamma counting; format: ADME, organism-based; details: in vivo, 0.5 h
[10] = system: Stomach; assay: Biodistribution in mouse stomach at 64.5 kBq, iv measured 10 mins post injection by gamma counting; format: ADME, organism-based; details: in vivo
[11] = system: Heart; assay: Biodistribution in mouse heart at 64.5 kBq, iv measured 2 mins post injection by gamma counting; format: ADME, organism-based; details: in vivo
[12] = system: Spleen; assay: Biodistribution in mouse spleen at 64.5 kBq, iv measured 30 mins post injection by gamma counting; format: ADME, organism-based; details: in vivo, 0.5 h
[13] = system: Intestine; assay: Biodistribution in mouse intestine at 64.5 kBq, iv measured 10 mins post injection by gamma counting; format: ADME, organism-based; details: in vivo
[14] = system: Blood; assay: Biodistribution in mouse blood at 64.5 kBq, iv measured 60 mins post injection by gamma counting; format: ADME, organism-based; details: in vivo, 1 h
[15] = system: Lung; assay: Biodistribution in mouse lung at 64.5 kBq, iv measured 2 mins post injection by gamma counting; format: ADME, organism-based; details: in vivo
[16] = Binding affinity to amyloid beta (1 to 42) aggregates after 30 mins by fluorescence assay
[17] = system: Bone; assay: Biodistribution in mouse bone at 64.5 kBq, iv measured 60 mins post injection by gamma counting; format: ADME, organism-based, Bone element; details: in vivo, 1 h
[18] = system: Liver; assay: Biodistribution in mouse liver at 64.5 kBq, iv measured 2 mins post injection by gamma counting; format: ADME, organism-based; details: in vivo
[19] = system: Intestine; assay: Biodistribution in mouse intestine at 64.5 kBq, iv measured 30 mins post injection by gamma counting; format: ADME, organism-based; details: in vivo, 0.5 h
[20] = system: Blood; assay: Biodistribution in mouse blood at 64.5 kBq, iv measured 2 mins post injection by gamma counting; format: ADME, organism-based; details: in vivo
[21] = system: Brain; assay: Biodistribution in mouse brain at 64.5 kBq, iv measured 10 mins post injection by gamma counting; format: ADME, organism-based; details: in vivo
[22] = system: Pancreas; assay: Biodistribution in mouse pancreas at 64.5 kBq, iv measured 30 mins post injection by gamma counting; format: ADME, organism-based; details: in vivo, 0.5 h
[23] = system: Heart; assay: Biodistribution in mouse heart at 64.5 kBq, iv measured 10 mins post injection by gamma counting; format: ADME, organism-based; details: in vivo
[24] = system: Brain; assay: Biodistribution in mouse brain at 64.5 kBq, iv measured 60 mins post injection by gamma counting; format: ADME, organism-based; details: in vivo, 1 h
[25] = system: Kidney; assay: Biodistribution in mouse kidney at 64.5 kBq, iv measured 2 mins post injection by gamma counting; format: ADME, organism-based; details: in vivo
[26] = system: Pancreas; assay: Biodistribution in mouse pancreas at 64.5 kBq, iv measured 60 mins post injection by gamma counting; format: ADME, organism-based; details: in vivo, 1 h
[27] = system: Heart; assay: Biodistribution in mouse heart at 64.5 kBq, iv measured 60 mins post injection by gamma counting; format: ADME, organism-based; details: in vivo, 1 h
[28] = system: Kidney; assay: Biodistribution in mouse kidney at 64.5 kBq, iv measured 30 mins post injection by gamma counting; format: ADME, organism-based; details: in vivo, 0.5 h
[29] = system: Intestine; assay: Biodistribution in mouse intestine at 64.5 kBq, iv measured 2 mins post injection by gamma counting; format: ADME, organism-based; details: in vivo
[30] = system: Stomach; assay: Biodistribution in mouse stomach at 64.5 kBq, iv measured 30 mins post injection by gamma counting; format: ADME, organism-based; details: in vivo, 0.5 h
[31] = system: Bone; assay: Biodistribution in mouse bone at 64.5 kBq, iv measured 30 mins post injection by gamma counting; format: ADME, organism-based, Bone element; details: in vivo, 0.5 h
[32] = system: Heart; assay: Biodistribution in mouse heart at 64.5 kBq, iv measured 30 mins post injection by gamma counting; format: ADME, organism-based; details: in vivo, 0.5 h
[33] = system: Liver; assay: Biodistribution in mouse liver at 64.5 kBq, iv measured 60 mins post injection by gamma counting; format: ADME, organism-based; details: in vivo, 1 h
[34] = system: Brain; assay: Drug uptake in normal human brain at 92.5 kBq after 2 hrs by […]; format: ADME, tissue-based
[35] = system: Bone; assay: Biodistribution in mouse bone at 64.5 kBq, iv measured 10 mins post injection by gamma counting; format: ADME, organism-based, Bone element; details: in vivo
[36] = system: Lung; assay: Biodistribution in mouse lung at 64.5 kBq, iv measured 60 mins post injection by gamma counting; format: ADME, organism-based; details: in vivo, 1 h
[37] = system: Kidney; assay: Biodistribution in mouse kidney at 64.5 kBq, iv measured 60 mins post injection by gamma counting; format: ADME, organism-based; details: in vivo, 1 h
[38] = system: Lung; assay: Biodistribution in mouse lung at 64.5 kBq, iv measured 30 mins post injection by gamma counting; format: ADME, organism-based; details: in vivo, 0.5 h
[39] = system: Blood; assay: Biodistribution in mouse blood at 64.5 kBq, iv measured 10 mins post injection by gamma counting; format: ADME, organism-based; details: in vivo
[40] = system: Pancreas; assay: Biodistribution in mouse pancreas at 64.5 kBq, iv measured 2 mins post injection by gamma counting; format: ADME, organism-based; details: in vivo
[41] = system: Intestine; assay: Biodistribution in mouse intestine at 64.5 kBq, iv measured 60 mins post injection by gamma counting; format: ADME, organism-based; details: in vivo, 1 h
[42] = system: Liver; assay: Biodistribution in mouse liver at 64.5 kBq, iv measured 10 mins post injection by gamma counting; format: ADME, organism-based; details: in vivo
[43] = system: Spleen; assay: Biodistribution in mouse spleen at 64.5 kBq, iv measured 60 mins post injection by gamma counting; format: ADME, organism-based; details: in vivo, 1 h
[44] = system: Spleen; assay: Biodistribution in mouse spleen at 64.5 kBq, iv measured 10 mins post injection by gamma counting; format: ADME, organism-based; details: in vivo
[45] = system: Stomach; assay: Biodistribution in mouse stomach at 64.5 kBq, iv measured 2 mins post injection by gamma counting; format: ADME, organism-based; details: in vivo
[46] = system: Spleen; assay: Biodistribution in mouse spleen at 64.5 kBq, iv measured 2 mins post injection by gamma counting; format: ADME, organism-based; details: in vivo
[47] = system: Stomach; assay: Biodistribution in mouse stomach at 64.5 kBq, iv measured 60 mins post injection by gamma counting; format: ADME, organism-based; details: in vivo, 1 h
[48] = system: Kidney; assay: Biodistribution in mouse kidney at 64.5 kBq, iv measured 10 mins post injection by gamma counting; format: ADME, organism-based; details: in vivo
[49] = system: Blood; assay: Biodistribution in mouse blood at 64.5 kBq, iv measured 30 mins post injection by gamma counting; format: ADME, organism-based; details: in vivo, 0.5 h
[50] = system: Brain; assay: Biodistribution in mouse brain at 64.5 kBq, iv measured 2 mins post injection by gamma counting; format: ADME, organism-based; details: in vivo
[51] = Displacement of Thioflavin S from amyloid beta (1 to 42) aggregates after 30 mins by fluorescence assay
[52] = Binding affinity to amyloid beta (1 to 42) aggregates assessed per nanomolar of protein after 30 mins by fluorescence assay; details: tested as the 18F-labelled form
[53] = target: T1, Microtubule-associated protein tau; assay: Binding affinity to recombinant human tau expressed in Escherichia coli assessed per nanomolar of protein after 30 mins by fluorescence assay; details: tested as the 18F-labelled form
[54] = species: Homo sapiens; assay: Binding affinity to neurofibrillary tangles in human alzheimer's disease patient brain at 92.5 kBq after 30 mins by immunohistological staining
[55] = species: Homo sapiens; assay: Binding affinity to senile plaques in human alzheimer's disease patient brain at 92.5 kBq after 30 mins by immunohistological staining
[56] = target: T1, Microtubule-associated protein tau; assay: Binding affinity to tau protein in human alzheimer's disease patient brain white matter at 92.5 kBq after 2 hrs by immunohistological staining; format: tissue-based; details: tested as the 18F-labelled form
[57] = target: Amyloid-beta precursor protein (Homo sapiens) (UniProt P05067); assay: Binding affinity to amyloid beta (1 to 42) aggregates in human alzheimer's disease patient brain white matter at 92.5 kBq after 2 hrs by immunohistological staining; format: tissue-based; details: tested as the 18F-labelled form
Amyloid-beta precursor protein (Homo sapiens), sequence (P05067 whole entry): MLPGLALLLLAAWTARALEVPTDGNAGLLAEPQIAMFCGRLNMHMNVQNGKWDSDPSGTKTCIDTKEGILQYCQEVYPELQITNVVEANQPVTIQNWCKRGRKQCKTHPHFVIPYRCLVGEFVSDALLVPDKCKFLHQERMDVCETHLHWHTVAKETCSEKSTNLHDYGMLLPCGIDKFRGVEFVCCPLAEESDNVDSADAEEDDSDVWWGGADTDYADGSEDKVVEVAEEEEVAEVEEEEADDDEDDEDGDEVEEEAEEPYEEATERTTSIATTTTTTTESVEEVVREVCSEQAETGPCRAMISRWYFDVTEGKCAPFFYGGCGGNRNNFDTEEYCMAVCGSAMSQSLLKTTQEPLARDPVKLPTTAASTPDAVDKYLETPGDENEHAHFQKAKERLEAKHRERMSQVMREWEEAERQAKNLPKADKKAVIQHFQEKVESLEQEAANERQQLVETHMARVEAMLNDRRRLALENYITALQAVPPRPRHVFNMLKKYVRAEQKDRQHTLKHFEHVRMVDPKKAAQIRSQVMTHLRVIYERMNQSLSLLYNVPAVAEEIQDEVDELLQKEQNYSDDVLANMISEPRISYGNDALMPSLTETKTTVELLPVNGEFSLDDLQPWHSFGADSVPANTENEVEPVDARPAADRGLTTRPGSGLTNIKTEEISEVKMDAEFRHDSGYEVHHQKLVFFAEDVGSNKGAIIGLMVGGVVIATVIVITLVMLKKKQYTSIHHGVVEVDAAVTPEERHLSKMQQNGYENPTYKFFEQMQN

T1 sequence (P10636 whole entry): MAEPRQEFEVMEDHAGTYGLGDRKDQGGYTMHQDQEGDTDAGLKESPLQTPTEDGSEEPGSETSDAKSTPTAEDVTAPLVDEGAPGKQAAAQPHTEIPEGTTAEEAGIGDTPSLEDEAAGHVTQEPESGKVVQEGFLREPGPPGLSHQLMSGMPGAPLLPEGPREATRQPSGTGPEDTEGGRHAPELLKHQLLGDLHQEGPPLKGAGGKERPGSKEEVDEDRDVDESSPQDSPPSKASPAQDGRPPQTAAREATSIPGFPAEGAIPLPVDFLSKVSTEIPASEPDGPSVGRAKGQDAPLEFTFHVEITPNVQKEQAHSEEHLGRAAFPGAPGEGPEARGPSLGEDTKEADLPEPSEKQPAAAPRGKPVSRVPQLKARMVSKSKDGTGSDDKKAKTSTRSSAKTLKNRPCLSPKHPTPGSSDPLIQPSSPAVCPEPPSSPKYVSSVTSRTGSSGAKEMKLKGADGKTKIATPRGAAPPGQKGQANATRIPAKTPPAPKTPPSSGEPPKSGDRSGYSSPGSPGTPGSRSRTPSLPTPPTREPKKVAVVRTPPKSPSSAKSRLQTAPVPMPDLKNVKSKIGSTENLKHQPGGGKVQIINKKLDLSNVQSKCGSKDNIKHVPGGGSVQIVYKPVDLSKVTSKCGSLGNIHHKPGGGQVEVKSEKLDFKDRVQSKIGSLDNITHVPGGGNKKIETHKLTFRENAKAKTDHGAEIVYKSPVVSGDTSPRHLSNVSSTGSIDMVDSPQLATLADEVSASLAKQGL

CN(C)c1ccc(/N=N/c2nc3ccc(I)cc3s2)cc1
Ratio Ki [1]: 17.2 | Ki [2]: 0.48 nM

CN(C)c1ccc(/N=N/c2nc3ccc(OCCOCCOCC[18F])cc3s2)cc1
Drug uptake [3]: 3.47 % ID/g | Drug uptake [4]: 4.01 % ID/g | Drug uptake [5]: 1.88 % ID/g | Drug uptake [6]: 4.37 % ID/g | Kd [7]: 44.8 nM | logP at 10 min [8]: 2.05 | Drug uptake [9]: 13.1 % ID/g | Drug uptake [10]: 1.42 %ID | Drug uptake [11]: 7.45 % ID/g | Drug uptake [12]: 2.71 % ID/g | Drug uptake [13]: 4.99 % ID/g | Drug uptake [14]: 2.68 % ID/g | Drug uptake [15]: 13.5 % ID/g | Kd [16]: 45.4 nM | Drug uptake [17]: 1.92 % ID/g | Drug uptake [18]: 20.2 % ID/g | Drug uptake [19]: 14.4 % ID/g | Drug uptake [20]: 3.04 % ID/g | Drug uptake [21]: 4.26 % ID/g | Drug uptake [22]: 2.87 % ID/g | Drug uptake [23]: 4.14 % ID/g | Drug uptake [24]: 2.53 % ID/g | Drug uptake [25]: 13.9 % ID/g | Drug uptake [26]: 2.18 % ID/g | Drug uptake [27]: 2.62 % ID/g | Drug uptake [28]: 5.08 % ID/g | Drug uptake [29]: 2.94 % ID/g | Drug uptake [30]: 2.69 %ID | Drug uptake [31]: 1.82 % ID/g | Drug uptake [32]: 3.05 % ID/g | Drug uptake [33]: 9.32 % ID/g | Drug uptake [34]: Not Active | Drug uptake [35]: 1.82 % ID/g | Drug uptake [36]: 3.59 % ID/g | Drug uptake [37]: 4 % ID/g | Drug uptake [38]: 3.36 % ID/g | Drug uptake [39]: 1.83 % ID/g | Drug uptake [40]: 5.41 % ID/g | Drug uptake [41]: 22.9 % ID/g | Drug uptake [42]: 19.3 % ID/g | Drug uptake [43]: 2.14 % ID/g | Drug uptake [44]: 3.41 % ID/g | Drug uptake [45]: 1.11 %ID | Drug uptake [46]: 3.47 % ID/g | Drug uptake [47]: 3.37 %ID | Drug uptake [48]: 7.67 % ID/g | Drug uptake [49]: 2.19 % ID/g | Drug uptake [50]: 4.28 % ID/g

CN(C)c1ccc(/N=N/c2nc3ccc(OCCOCCOCCF)cc3s2)cc1
IC50 [51]: 47.3 nM | Ki [51]: 20 nM | Ratio Ki [1]: 1.54 | Bmax [52]: 38.9 pmol | Bmax [53]: 45.8 pmol | Activity [54]: Active | Activity [55]: Active | IC50 [2]: 256 nM | Ki [2]: 13 nM | Activity [56]: Active | Activity [57]: Active

CN(C)c1ccc(/N=N/c2nc3ccc([125I])cc3s2)cc1
logP at 10 min [8]: 3.84 | Drug uptake [24]: 2.89 % ID/g | Drug uptake [50]: 0.94 % ID/g
